Patent publication US20190211020A1 (Agency for Science, Technology and Research, priority 2012, published 2019)
Where a name gives a salt, the structure may show the parent alone.

tested on: eIF4E Ser209 phosphorylation in Hela cells; assay: MNK cell-based assay (AlphaScreen SureFire, eIF4E Ser209 phosphorylation); conditions: Homo sapiens; eIF4E Ser209 phosphorylation, Hela cells, 2 hours; read-out: IC50 Hela
Description: It has been reported that Ser209 of eIF4E is solely phosphorylated by the MNK enzymes. The ability of compounds to inhibit this process in Hela cells was investigated using the AlphaScreen SureFire® assay platform from Perkin Elmer (Waltham, Mass.). eIF4E phosphorylated on Ser209 is recognized by two antibodies, the first which is fused to a streptavidin coated donor bead binds to an epitope away from Ser209, the second which is fused to a protein A conjugated acceptor bead binds to phosphorylated Ser209. The phosphorylation of eIF4E on Ser209 brings the two antibodies into close proximity and when excited by a laser a singlet oxygen is released by the donor bead which excites the acceptor bead resulting in the emission of light. This enables the monitoring of eIF4E Ser209 phosphorylation and its inhibition in a cellular context.
Hela cells were seeded into microtitre plates (30,000 cells per well) in 100 μl of culture medium and incubated at 37° C. for 24 hours. The media was then removed by aspiration and the cells resuspended in 50 μl of serum free medium containing the test compound and incubated at 37° C. for 2 hours. The culture medium was again removed by aspiration and the cells resuspended in lysis buffer (provided in Perkin Elmer SureFire® Assay Kit). After agitation at 350 rpm for 20 minutes at 22° C., 4 μl was transferred to a 384 well OptiPlate™ (Perkin Elmer, Waltham, Mass.). To each well was added 5 μl of acceptor mix; the plate was sealed and agitated gently at 22° C. for 2 hours. Then, in subdued light, 2 μl of donor mix was added to each well, the plate was sealed, wrapped in aluminum foil and agitated gently at 22° C. for 2 hours. Emission was measured using the EnVision® plate reader (Perkin Elmer, Waltham, Mass.).
Inhibition constants (IC50) were determined by plotting AlphaScreen signal versus log compound concentration and fitting with a non-linear regression algorithm using GraphPad Prism (GraphPad Software Inc.).

SMILES | IC50
CC1(C)CCN(C(=O)c2ccc(-c3cn4c(-c5ccc(C(N)=O)cc5)cnc4cn3)cc2)CC1 [Example 3, 4-(6-(4-(4,4-dimethylpiperidine-1-carbonyl)phenyl)imidazo[1,2-a]pyrazin-3-yl)benzamide] | < 1 µM
NC(=O)c1ccc(-c2cnc3cnc(-c4ccc(C(=O)N5CCC(N)CC5)cc4)cn23)cc1 [Example 4, 4-(6-(4-(4-aminopiperidine-1-carbonyl)phenyl)imidazo[1,2-a]pyrazin-3-yl) benzamide hydrochloride] | < 1 µM
CC(C)(C)N1CCN(C(=O)c2ccc(-c3cn4c(-c5ccc(C(N)=O)cc5)cnc4cn3)cc2)CC1 [Example 5, 4-(6-(4-(4-tert-butylpiperazine-1-carbonyl)phenyl)imidazo [1,2-a]pyrazin-3-yl)benzamide] | < 1 µM
CC(C)(C)N1CCN(C(=O)c2ccc(-c3cn4c(-c5ccc(C#N)cc5)cnc4cn3)cc2)CC1 [Example 26, 4-(6-(4-(4-tert-butylpiperazine-1-carbonyl)phenyl)imidazo[1,2-a]pyrazin-3-yl)benzonitrile] | < 1 µM
Cc1cc(-c2cn3c(-c4ccc(C#N)cc4)cnc3cn2)ccc1C(=O)N1CCC(C)(N)CC1 [Example 28, 4-(6-(4-(4-amino-4-methylpiperidine-1-carbonyl)-3-methylphenyl)imidazo [1,2-a]pyrazin-3-yl)benzonitrile] | < 1 µM
N#Cc1ccc(-c2cnc3cnc(-c4ccc(C(=O)N5CCC(N)CC5)c(F)c4)cn23)cc1 [Example 29, 4-(6-(4-(4-aminopiperidine-1-carbonyl)-3-fluorophenyl)imidazo[1,2-a]pyrazin-3-yl)benzonitrile] | < 1 µM

Other lines, results leading:

IC50 | SMILES
< 1 µM | N#Cc1ccc(-c2cnc3cnc(-c4ccc(C(=O)N5CCOCC5)cc4)cn23)cc1 [Example 7, 4-(6-(4-(morpholine-4-carbonyl)phenyl)imidazo[1,2-a]pyrazin-3-yl)benzonitrile]
< 1 µM | CNC1CCN(C(=O)c2ccc(-c3cn4c(-c5ccc(C#N)cc5)cnc4cn3)cc2)CC1 [Example 9, 4-(6-(4-(4-(methylamino)piperidine-1-carbonyl)phenyl)imidazo[1,2-a]pyrazin-3-yl)benzonitrile]
< 1 µM | N#Cc1ccc(-c2cnc3cnc(-c4ccc(C(=O)N5CCN(C6CC6)CC5)cc4)cn23)cc1 [Example 14, 4-(6-(4-(4-cyclopropylpiperazine-1-carbonyl)phenyl)imidazo[1,2-a]pyrazin-3-yl)benzonitrile]
< 1 µM | N#Cc1ccc(-c2cnc3cnc(-c4ccc(C(=O)N5CCC(O)CC5)cc4)cn23)cc1 [Example 15, 4-(6-(4-(4-hydroxypiperidine-1-carbonyl)phenyl)imidazo [1,2-a]pyrazin-3-yl)benzonitrile]
< 1 µM | CN1CCCN(C(=O)c2ccc(-c3cn4c(-c5ccc(C#N)cc5)cnc4cn3)cc2)CC1 [Example 17, 4-(6-(4-(4-methyl-1,4-diazepane-1-carbonyl)phenyl)imidazo [1,2-a]pyrazin-3-yl)benzonitrile]
< 1 µM | CN(C)C1CCN(C(=O)c2ccc(-c3cn4c(-c5ccc(C#N)cc5)cnc4cn3)cc2)CC1 [Example 21, 4-(6-(4-(4-(dimethylamino)piperidine-1-carbonyl)phenyl)imidazo [1,2-a]pyrazin-3-yl)benzonitrile]
< 1 µM | CC1(N)CCN(C(=O)c2ccc(-c3cn4c(-c5ccc(C#N)cc5)cnc4cn3)cc2)CC1 [Example 23, 4-(6-(4-(4-amino-4-methylpiperidine-1-carbonyl)phenyl)imidazo[1,2-a]pyrazin-3-yl)benzonitrile hydrochloride salt]
< 1 µM | N#Cc1ccc(-c2cnc3cnc(-c4ccc(C(=O)N5CCC6(CC5)COC6)cc4)cn23)cc1 [Example 24, 4-(6-(4-(2-oxa-7-azaspiro[3.5]nonane-7-carbonyl)phenyl)imidazo[1,2-a]pyrazin-3-yl)benzonitrile]
